The subject of this assay is BDF1 mice, intracerebral L1210 leukemia, survival T/C. Nature of the assay: NCI In Vivo Anticancer Drug Screen. Data for tumor model L1210 Leukemia (intracerebral) in B6D2F1 (BDF1) mice. The settings on record: higher = longer survival. On the procedure:
The antitumor activity of compounds was measured in mice bearing transplantable tumors. Survival or tumor size were measured and the results are expressed as the measurement made in the treated group (T) divided by the measurement made in the vehicle treated control group (C). The tumor model used in this assay is L1210 Leukemia (intracerebral) in B6D2F1 (BDF1) mice

[1] abbreviates: endpoint: mean survival time, dose: 10.0 mg/kg/injection, schedule: Q01DX001 (ip), vehicle: other.
Setting [2] is: endpoint: mean survival time, dose: 75.0 mg/kg/injection, schedule: Q01DX001 (ip), vehicle: carboxymethylcellulose (CMC).
The mark [3] stands for this setting: endpoint: mean survival time, dose: 150.0 mg/kg/injection, schedule: Q01DX001 (ip), vehicle: carboxymethylcellulose (CMC).

Eleven molecules from PubChem BioAssay AID252 (DTP/NCI, 2004) can be followed below.

“And” between values parts separate entries of the source, which are not always exact repeats. Identical values can stand only once. Toxic doses and inconclusive results are not listed.

Regarding `O=NN(CCCl)C(=O)N[C@H]1CCCC[C@@H]1Cl`, the T/C reads like this: (endpoint: mean survival time, dose: 5.0 mg/kg/injection, schedule: Q01DX001 (ip), vehicle: other) 102 % of control and 96 % of control; under setting [1], 106 % of control and 113 % of control; (endpoint: mean survival time, dose: 13.0 mg/kg/injection, schedule: Q01DX001 (ip), vehicle: carboxymethylcellulose (CMC)) 120 % of control; (endpoint: mean survival time, dose: 13.75 mg/kg/injection, schedule: Q01DX001 (oral), vehicle: other) 190 % of control and 226 % of control and 230 % of control; (endpoint: mean survival time, dose: 15.25 mg/kg/injection, schedule: Q01DX001 (ip), vehicle: other) 158 % of control and 165 % of control and 216 % of control; (endpoint: mean survival time, dose: 19.0 mg/kg/injection, schedule: Q01DX001 (ip), vehicle: carboxymethylcellulose (CMC)) 152 % of control. Moreover, the T/C is, setting by setting: (endpoint: mean survival time, dose: 20.0 mg/kg/injection, schedule: Q01DX001 (ip), vehicle: other) 175 % of control and 181 % of control; (endpoint: mean survival time, dose: 26.0 mg/kg/injection, schedule: Q01DX001 (ip), vehicle: carboxymethylcellulose (CMC)) 164 % of control and 221 % of control; (endpoint: mean survival time, dose: 27.5 mg/kg/injection, schedule: Q01DX001 (oral), vehicle: other) 315 % of control and 337 % of control and 442 % of control; (endpoint: mean survival time, dose: 30.5 mg/kg/injection, schedule: Q01DX001 (ip), vehicle: carboxymethylcellulose (CMC)) 163 % of control; (endpoint: mean survival time, dose: 30.5 mg/kg/injection, schedule: Q01DX001 (ip), vehicle: other) 278 % of control and 293 % of control and 361 % of control; (endpoint: mean survival time, dose: 40.0 mg/kg/injection, schedule: Q01DX001 (ip), vehicle: carboxymethylcellulose (CMC)) 228 % of control and 310 % of control. The T/C was 317 % of control and 391 % of control (endpoint: mean survival time, dose: 41.0 mg/kg/injection, schedule: Q01DX001 (ip), vehicle: other); 284 % of control (endpoint: mean survival time, dose: 46.0 mg/kg/injection, schedule: Q01DX001 (ip), vehicle: carboxymethylcellulose (CMC)); 184 % of control and 271 % of control and 351 % of control (endpoint: mean survival time, dose: 55.0 mg/kg/injection, schedule: Q01DX001 (oral), vehicle: other); 297 % of control (endpoint: mean survival time, dose: 60.0 mg/kg/injection, schedule: Q01DX001 (ip), vehicle: carboxymethylcellulose (CMC)); 274 % of control (endpoint: mean survival time, dose: 61.0 mg/kg/injection, schedule: Q01DX001 (ip), vehicle: carboxymethylcellulose (CMC)); 178 % of control and 254 % of control (endpoint: mean survival time, dose: 61.0 mg/kg/injection, schedule: Q01DX001 (ip), vehicle: other). For the same molecule, the T/C (endpoint: mean survival time, dose: 83.0 mg/kg/injection, schedule: Q01DX001 (ip), vehicle: other) is 270 % of control and 419 % of control.
As for `O=NN(CCF)C(=O)NC1CCC(NC(=O)N(CCF)N=O)CC1` (configuration not stated), the T/C by setting is: under setting [1], 110 % of control; (endpoint: mean survival time, dose: 25.0 mg/kg/injection, schedule: Q01DX001 (ip), vehicle: other) 120 % of control; (endpoint: mean survival time, dose: 30.0 mg/kg/injection, schedule: Q01DX001 (ip), vehicle: other) 155 % of control; (endpoint: mean survival time, dose: 40.0 mg/kg/injection, schedule: Q01DX001 (ip), vehicle: other) 193 % of control; (endpoint: mean survival time, dose: 50.0 mg/kg/injection, schedule: Q01DX001 (ip), vehicle: other) 224 % of control; (endpoint: mean survival time, dose: 60.0 mg/kg/injection, schedule: Q01DX001 (ip), vehicle: other) 202 % of control. For the same molecule, the T/C by setting is: (endpoint: mean survival time, dose: 80.0 mg/kg/injection, schedule: Q01DX001 (ip), vehicle: other) 293 % of control and 329 % of control; (endpoint: mean survival time, dose: 110.0 mg/kg/injection, schedule: Q01DX001 (ip), vehicle: other) 294 % of control; (endpoint: mean survival time, dose: 120.0 mg/kg/injection, schedule: Q01DX001 (ip), vehicle: other) 319 % of control and 334 % of control; (endpoint: mean survival time, dose: 180.0 mg/kg/injection, schedule: Q01DX001 (ip), vehicle: other) 277 % of control; (endpoint: mean survival time, dose: 187.0 mg/kg/injection, schedule: Q01DX001 (ip), vehicle: other) 170 % of control; (endpoint: mean survival time, dose: 240.0 mg/kg/injection, schedule: Q01DX001 (ip), vehicle: other) 262 % of control.
As for `CCOC(=O)c1ccc(NC(=O)N(C)N=O)cc1`, the T/C under setting [2] was 94 % of control; the T/C under setting [3] is 102 % of control; the T/C (endpoint: mean survival time, dose: 300.0 mg/kg/injection, schedule: Q01DX001 (ip), vehicle: carboxymethylcellulose (CMC)) is 97 % of control.
For `CCOC(N)=O`, the T/C is 104 % of control (endpoint: mean survival time, dose: 1074.0 mg/kg/injection, schedule: Q01DX001 (ip), vehicle: saline) and 106 % of control (endpoint: mean survival time, dose: 1601.0 mg/kg/injection, schedule: Q01DX001 (ip), vehicle: saline).
Take `CSCS(=O)C[C@H](CO)NC(=O)/C=C/c1c(C)[nH]c(=O)[nH]c1=O` (some centres not stated): the T/C is, setting by setting: (endpoint: mean survival time, dose: 1.1 mg/kg/injection, schedule: Q01DX001 (ip), vehicle: carboxymethylcellulose (CMC)) 95 % of control; (endpoint: mean survival time, dose: 1.7 mg/kg/injection, schedule: Q01DX001 (ip), vehicle: carboxymethylcellulose (CMC)) 101 % of control; (endpoint: mean survival time, dose: 2.6 mg/kg/injection, schedule: Q01DX001 (ip), vehicle: carboxymethylcellulose (CMC)) 98 % of control.
Consider `O=c1[nH]c(=O)n([C@H]2CCCO2)cc1F`, for which the T/C (endpoint: median survival time, dose: 23.0 mg/kg/injection, schedule: Q01DX009 (ip), vehicle: water) was 95 % of control; the T/C (endpoint: median survival time, dose: 39.0 mg/kg/injection, schedule: Q01DX009 (ip), vehicle: water) is 107 % of control; the T/C (endpoint: median survival time, dose: 65.0 mg/kg/injection, schedule: Q01DX009 (ip), vehicle: water) is 101 % of control; the T/C (endpoint: median survival time, dose: 65.0 mg/kg/injection, schedule: Q04DX003 (ip), vehicle: water) was 97 % of control; the T/C (endpoint: median survival time, dose: 108.0 mg/kg/injection, schedule: Q04DX003 (ip), vehicle: water) was 99 % of control; the T/C (endpoint: median survival time, dose: 180.0 mg/kg/injection, schedule: Q01DX009 (ip), vehicle: water) is 97 % of control. For the same molecule, for the setting “endpoint: median survival time, dose: 180.0 mg/kg/injection, schedule: Q04DX003 (ip), vehicle: water”, the T/C is 111 % of control.
Turning to `COc1cc(NS(C)(=O)=O)ccc1Nc1c2cccc(C)c2nc2c(C)cccc12`, the T/C is 111 % of control (endpoint: mean survival time, dose: 6.25 mg/kg/injection, schedule: Q01DX009 (ip), vehicle: water); 98 % of control (endpoint: mean survival time, dose: 6.25 mg/kg/injection, schedule: Q01DX009 (sc), vehicle: water); 101 % of control (endpoint: mean survival time, dose: 12.5 mg/kg/injection, schedule: Q01DX009 (sc), vehicle: water); 101 % of control (endpoint: mean survival time, dose: 25.0 mg/kg/injection, schedule: Q01DX001 (ip), vehicle: saline); 114 % of control (endpoint: mean survival time, dose: 25.0 mg/kg/injection, schedule: Q01DX009 (ip), vehicle: water); 103 % of control (endpoint: mean survival time, dose: 25.0 mg/kg/injection, schedule: Q01DX009 (sc), vehicle: water). The T/C is, setting by setting: (endpoint: mean survival time, dose: 50.0 mg/kg/injection, schedule: Q01DX001 (ip), vehicle: saline) 107 % of control; (endpoint: mean survival time, dose: 50.0 mg/kg/injection, schedule: Q01DX009 (sc), vehicle: water) 104 % of control; (endpoint: mean survival time, dose: 100.0 mg/kg/injection, schedule: Q01DX001 (ip), vehicle: saline) 110 % of control; (endpoint: mean survival time, dose: 200.0 mg/kg/injection, schedule: Q01DX001 (ip), vehicle: saline) 112 % of control.
In the case of `CNC(=O)N(C)N=O`, the T/C runs as follows: (endpoint: mean survival time, dose: 112.0 mg/kg/injection, schedule: Q01DX001 (ip), vehicle: carboxymethylcellulose (CMC)) 115 % of control; (endpoint: mean survival time, dose: 167.0 mg/kg/injection, schedule: Q01DX001 (ip), vehicle: carboxymethylcellulose (CMC)) 113 % of control; (endpoint: mean survival time, dose: 225.0 mg/kg/injection, schedule: Q01DX001 (ip), vehicle: carboxymethylcellulose (CMC)) 161 % of control; (endpoint: mean survival time, dose: 375.0 mg/kg/injection, schedule: Q01DX001 (ip), vehicle: carboxymethylcellulose (CMC)) 112 % of control.
In the case of `CC(=O)NC1=C(N2CC2C)C(=O)C(NC(C)=O)=C(N2CC2C)C1=O` (configuration not stated), the T/C by setting is: (endpoint: mean survival time, dose: 2.5 mg/kg/injection, schedule: Q01DX009 (ip), vehicle: saline with Tween-80) 118 % of control; (endpoint: mean survival time, dose: 2.5 mg/kg/injection, schedule: Q01DX009 (ip), vehicle: saline) 111 % of control; (endpoint: mean survival time, dose: 5.0 mg/kg/injection, schedule: Q01DX009 (ip), vehicle: saline with Tween-80) 120 % of control; (endpoint: mean survival time, dose: 5.0 mg/kg/injection, schedule: Q01DX009 (ip), vehicle: saline) 114 % of control; (endpoint: mean survival time, dose: 10.0 mg/kg/injection, schedule: Q01DX009 (ip), vehicle: saline with Tween-80) 94 % of control; (endpoint: mean survival time, dose: 10.0 mg/kg/injection, schedule: Q01DX009 (ip), vehicle: saline) 97 % of control. Also, where the note is “endpoint: mean survival time, dose: 20.0 mg/kg/injection, schedule: Q01DX009 (ip), vehicle: saline with Tween-80”, the T/C was 88 % of control.
Regarding `O=NN(CCCl)C(=O)N[C@@H]1CCCC[C@H]1O`, the T/C was 350 % of control (endpoint: mean survival time, dose: 12.0 mg/kg/injection, schedule: Q01DX001 (ip), vehicle: saline with Tween-80); 463 % of control (endpoint: mean survival time, dose: 18.0 mg/kg/injection, schedule: Q01DX001 (ip), vehicle: saline with Tween-80); 175 % of control (endpoint: mean survival time, dose: 26.0 mg/kg/injection, schedule: Q01DX001 (ip), vehicle: saline with Tween-80).
With `CN(N=O)C(=O)Nc1ccc(F)cc1`, the T/C reads like this: under setting [2], 101 % of control; under setting [3], 103 % of control.
